Measured values published in US6235761A, “Compound, composition and method for treating cancer” (priority 1999, dated 2001).

Tests used:
[1] = Distribution of penclomedine and its metabolites in mouse tissues; type: in vivo, CD2F1 mice; conditions: for level in liver: mouse liver versus other tissues
Experimental: CD2F1 Mice were obtained from Harlan Sprague-Dawley (Frederick, Md.). During the course of this study, mice were housed in polyethylene shoe box cages without bedding and given access to food and water. Four mice were used per time point.
^14 C-Penclomedine (specific activity 17.6 and 18.9 mCi/mM, labeled at CCl3) was obtained from Research Triangle Institute (Research Triangle Park, N.C.) and stored at -20° C. The site of radiolabel has been conserved in all penclomedine metabolites identified to date. The composition of the radioactive material was determined to be 99% ^14 C-penclomedine, by HPLC coupled with radiochemical detection.
^14 C-penclomedine (1 mCi/ml in ethanol) was added to the clinical penclomedine emulsion to give an activity of […] (4% ethanol final concentration). The mice were administered the above penclomedine formulation at 40 mg/kg (120 mg/m^2, […]) either intravenously via tail vein or orally via gavage. At 1, 2, 4, and 22 hours after intravenous administration and 2,4, 6, and 22 hours after oral administration, animals were euthanized with carbon dioxide and blood tissues were collected. Blood tissues from each time point were pooled. Blood was centrifuged and plasma and red cells were separated; tissues were homogenized in 3 volumes of 100 mM ammonium formate buffer pH 6.5. Urinary output was estimated by washing the cages with water after removing food and feces and concentrating these cage washings.
A 1 ml aliquot of tissue homogenate or a […] was acidified with 200 ml of 0.7 M ammonium phosphate pH 2.7, then 3 ml of ethyl acetate was added. This mixture was vortexed, centrifuged and the organic layer was collected. Fifty microliters of DMSO were added, and the ethyl acetate was concentrated to approximately […] with a stream of dry nitrogen. Fifty microliters of acetonitrile were added to this residue, and the resulting solution was analyzed by HPLC. Human plasma was processed identically to mouse plasma with the exception that 500 ml of plasma was extracted. Concentrated cage washings were analyzed by HPLC without further processing.
Plasma and tissue protein binding data were measured on the residue of the above extractions. The aqueous phase was washed with 5 ml of ethanol, centrifuged, and the ethanol insoluble precipitate was washed again with 5 ml ethanol. After centrifugation the pellet was resuspended in 0.5 ml 6 M guanidinium chloride, added to 10 ml 3a70B scintillation cocktail (Research Products International Corp., Mount Prospect, Ill.), and counted for ^14 C.
HPLC Assays: The HPLC system consisted of a Hewlett-Packard Series II 1090 liquid chromatograph with diode array detector (Hewlett-Packard, Palo Alto, Calif.). The column used was an Alltech Adsorbosphere HS C18 5 m 250×4.6 mm column (Alltech Associates, Deerfield, Ill.). The system used a gradient elution consisting of 100% 10 mM ammonium phosphate buffer pH 2.7 progressing to 100% acetonitrile over 25 minutes at 1 ml/min. Detection was performed by means of ultraviolet absorbance at 240 nm as well as by means of radioactivity using a Radiomatic Flo-One/Beta A140 radioactive flow detector (Packard Instrument Co., Downers Grove, Ill.) equipped with a […] and Flo-Scint VI scintillation cocktail at a 2:1 ratio.
^14 C-Penclomedine derived radioactivity was determined in mouse urine samples collected at 1, 2, 4, and 22 hours following intravenous and oral administration of^14 C-penclomedine. […] There were considerable differences in metabolite distribution among the different tissues. […] Most compounds present in the 2 hour samples were detectable in the 22 hour samples at levels from 10% to 50% of those seen at 2 hours.

dogs = conditions: cited from earlier work
[2] = test system: patients with advanced solid tumors; conditions: cited from earlier work
rats = conditions: dose related; during or immediately after infusion; cited from earlier work
[3] = cited from earlier work

In the case of `COc1nc(C(Cl)(Cl)Cl)c(Cl)c(O)c1Cl` [4-Demethylpenclomedine, 3,5-dichloro-2-methoxy-4-hydroxy-6-(trichloromethyl)-pyridine], the “accumulation in fatty tissues compared with penclomedine” value ([1]; mouse) is reported as “does not accumulate in fatty tissues as much as penclomedine” and the level in liver ([1]; 14C-penclomedine dosed) is reported as “liver contained the highest levels of demethylpenclomedine”.

For `COc1nc(C(Cl)(Cl)Cl)c(Cl)c(OC)c1Cl` [Penclomedine, 3,5-dichloro-2,4-dimethoxy-6-(trichloromethyl)pyridine], the “plasma penclomedine levels associated with severe emesis and seizures” value (dogs) is given as “above 30 μM”, the “Tissue Concentration” value ([1]; brain, 2 hours, i.v. 14C-penclomedine 40 mg/kg) is given as 1.30 nmoles/gram wet tissue and the “Tissue Concentration” value ([1]; brain, 2 hours, p.o. 14C-penclomedine 40 mg/kg) is given as 2.16 nmoles/gram wet tissue. The “Tissue Concentration” value ([1]; carcass, 2 hours, i.v. 14C-penclomedine 40 mg/kg) was 14.8 nmoles/gram wet tissue, the “Tissue Concentration” value ([1]; carcass, 2 hours, p.o. 14C-penclomedine 40 mg/kg) was 55.2 nmoles/gram wet tissue and the “Tissue Concentration” value ([1]; carcass, 22 hours, i.v. 14C-penclomedine 40 mg/kg) was 5.15 nmoles/gram wet tissue. For the same compound, the “Tissue Concentration” value ([1]; carcass, 22 hours, p.o. 14C-penclomedine 40 mg/kg) was 2.16 nmoles/gram wet tissue, the “Tissue Concentration” value ([1]; fat, 2 hours, i.v. 14C-penclomedine 40 mg/kg) was 15.8 nmoles/gram wet tissue and the “Tissue Concentration” value ([1]; fat, 2 hours, p.o. 14C-penclomedine 40 mg/kg) was 18.55 nmoles/gram wet tissue. The “Tissue Concentration” value ([1]; fat, 22 hours, i.v. 14C-penclomedine 40 mg/kg) was 8.90 nmoles/gram wet tissue, the “Tissue Concentration” value ([1]; kidney, 2 hours, i.v. 14C-penclomedine 40 mg/kg) was 6.45 nmoles/gram wet tissue and the “Tissue Concentration” value ([1]; kidney, 2 hours, p.o. 14C-penclomedine 40 mg/kg) was 7.30 nmoles/gram wet tissue. For the same compound, the “Tissue Concentration” value ([1]; kidney, 22 hours, i.v. 14C-penclomedine 40 mg/kg) was 1.21 nmoles/gram wet tissue, the “Tissue Concentration” value ([1]; kidney, 22 hours, p.o. 14C-penclomedine 40 mg/kg) was 0.85 nmoles/gram wet tissue and the “Tissue Concentration” value ([1]; liver, 2 hours, i.v. 14C-penclomedine 40 mg/kg) was 0.69 nmoles/gram wet tissue. The “Tissue Concentration” value ([1]; liver, 2 hours, p.o. 14C-penclomedine 40 mg/kg) was 1.35 nmoles/gram wet tissue, the “Tissue Concentration” value ([1]; liver, 22 hours, p.o. 14C-penclomedine 40 mg/kg) was 0.38 nmoles/gram wet tissue and the level in liver ([1]; 14C-penclomedine dosed) was “the lowest levels of penclomedine”. For the same compound, the “tissues with highest levels” value ([1]; mouse, 14C-penclomedine dosed) was “Highest levels of penclomedine were detected in the fat and carcass”, the “detectability in 2 hour tissue samples” value ([1]; mouse, 2 hours) was “All 2 hour tissue samples contained detectable amounts of penclomedine” and the “toxicities reported in preclinical and early clinical studies” value ([2]; human, in vivo) was “Neurological and hematological toxicities”. For the same compound, the “principal dose limiting toxicity” value ([2]; one hour infusion for 5 consecutive days, advanced solid tumors) was “Neurotoxicity, consisting of dysmetria, ataxia, and vertigo”, the neurotoxicity in rats (rats) was “muscle tremors, incoordination, convulsions and reduced activity” and the “detectability in the nervous system” value ([3]; during the time period of neurologic symptoms, rats, O'Reilly et al.) was “penclomedine but not its metabolite is detectable in the nervous system”. For the same compound, the “predominant radioactive species in the brain” value ([3]; tumor-bearing rats) was “the predominant radioactive species in the brain was ^14 C-penclomedine”.
